These results are taken from patent US7098209B2, “Pyrazino [1'2':1,6 ] pyrido [3, 4-b] indole-1,4-dione derivatives” (Lilly Icos LLC, priority 2001, dated 2006).

For one series, the target named is recombinant human PDE5 (Homo sapiens, UniProt O76074). Nature of the series: Inhibitory effect on cGMP-PDE (PDE5 IC50 determination). To be noted: in vitro. Type of series: biochemical. The method, then:
The compounds of structural formula (I) were tested for an ability to inhibit PDE5. The ability of a compound to inhibit PDE5 activity is related to the IC50 value for the compound, i.e., the concentration of inhibitor required for 50% inhibition of enzyme activity. The IC50 value for compounds of structural formula (I) were determined using recombinant human PDE5.
Phosphodiesterase activity of the preparations was determined as follows. PDE assays utilizing a charcoal separation technique were performed essentially as described in Loughney et al. (1996). In this assay, PDE activity converts [32P]cAMP or [32P]cGMP to the corresponding [32P]5′-AMP or [32P]5′-GMP in proportion to the amount of PDE activity present. The [32P]5′-AMP or [32P]5′-GMP then was quantitatively converted to free [32P]phosphate and unlabeled adenosine or guanosine by the action of snake venom 5′-nucleotidase. […] The assay was performed at 30° C. in a 100 μL reaction mixture containing (final concentrations) 40 mM Tris HCl (pH 8.0), 1 μM ZnSO4, 5 mM MgCl2, and 0.1 mg/mL bovine serum albumin (BSA). PDE enzyme was present in quantities that yield <30% total hydrolysis of substrate (linear assay conditions). The assay was initiated by addition of substrate ([…] [32P]cAMP or cGMP), and the mixture was incubated for 12 minutes. seventy-five (75) μg of Crotalus atrox venom then was added, and the incubation was continued for 3 minutes (15 minutes total). The reaction was stopped by addition of 200 μL of activated charcoal (25 mg/mL suspension in 0.1 M NaH2PO4, pH 4). After centrifugation (750×g for 3 minutes) to sediment the charcoal, a sample of the supernatant was taken for radioactivity determination in a scintillation counter and the PDE activity was calculated.
cGMP-PDE activity of compounds of the present invention was measured using a one-step assay adapted from Wells et al., Biochim. Biophys. Acta, 384, 430 (1975). The reaction medium contained 50 mM Tris-HCl, pH 7.5, 5 mM magnesium acetate, 250 μg/ml 5′-Nucleotidase, 1 mM EGTA, and 0.15 μM 8-[H^3]-cGMP. Unless otherwise indicated, the enzyme used was a human recombinant PDE5 (ICOS Corp., Bothell, Wash.).
Compounds of the invention were dissolved in DMSO finally present at 2% in the assay.

Broadly, the melting point is the temperature, or range, at which the solid turns liquid. In general, IC50 refers to the concentration at which inhibition is half-maximal. In turn, `CN1CC(=O)N2[C@H](c3ccc4c(c3)OCO4)c3c(c4ccccc4n3C)C[C@H]2C1=O` [Example 1, (6R,12aS)-6-Benzo[1,3]dioxol-5-yl-2,7-dimethyl-2,3,6,7,12,12a-hexahydropyrazino[1′,2′:1,6]-pyrido[3,4-b]indole-1,4-dione] had a melting point of 386 to 387 °C. On recombinant human PDE5, the IC50 was 0.124 µM.
As for `CN1CC(=O)N2[C@H](c3ccc4c(c3)OCO4)c3c(c4ccccc4n3C)C[C@@H]2C1=O` [Example 2, (6R,12aR)-6-Benzo[1,3]dioxol-5-yl-2,7-dimethyl-2,3,6,7,12,12a-hexahydropyrazino[1′,2′:1,6]-pyrido[3,4-b]indole-1,4-dione], the IC50 on recombinant human PDE5 is 0.571 µM.
`CN1CC(=O)N2[C@H](c3ccc4c(c3)OCO4)c3c(c4ccccc4n3Cc3ccccc3)C[C@H]2C1=O` [Example 3, (6R,12aS)-6-Benzo[1,3]dioxol-5-yl-7-benzyl-2-methyl-2,3,6,7,12,12a-hexahydropyrazino-[1′,2′:1,6]pyrido[3,4-b]indole-1,4-dione] registered a melting point of 110 to 145 °C. Moreover, the IC50 at recombinant human PDE5 is 0.313 µM.
`CC(=O)n1c2c(c3ccccc31)C[C@@H]1C(=O)N(C)CC(=O)N1[C@@H]2c1ccc2c(c1)OCO2` [Example 4, (6R,12aR)-7-Acetyl-6-benzo[1,3]dioxol-5-yl-2-methyl-2,3,6,7,12,12a-hexahydropyrazino-[1′,2′:1,6]pyrido[3,4-b]indole-1,4-dione]: the melting point lay in the range of 145 to 159 °C. In addition, the IC50 at recombinant human PDE5 came out at 0.007 µM.
